These results are taken from patent US11123337B2, “4-methylsulfonyl-substituted piperidine urea compounds” (MYOKARDIA, INC., priority 2015, dated 2021).

Sequence of bovine cardiac myosin (Q9BE39 whole entry): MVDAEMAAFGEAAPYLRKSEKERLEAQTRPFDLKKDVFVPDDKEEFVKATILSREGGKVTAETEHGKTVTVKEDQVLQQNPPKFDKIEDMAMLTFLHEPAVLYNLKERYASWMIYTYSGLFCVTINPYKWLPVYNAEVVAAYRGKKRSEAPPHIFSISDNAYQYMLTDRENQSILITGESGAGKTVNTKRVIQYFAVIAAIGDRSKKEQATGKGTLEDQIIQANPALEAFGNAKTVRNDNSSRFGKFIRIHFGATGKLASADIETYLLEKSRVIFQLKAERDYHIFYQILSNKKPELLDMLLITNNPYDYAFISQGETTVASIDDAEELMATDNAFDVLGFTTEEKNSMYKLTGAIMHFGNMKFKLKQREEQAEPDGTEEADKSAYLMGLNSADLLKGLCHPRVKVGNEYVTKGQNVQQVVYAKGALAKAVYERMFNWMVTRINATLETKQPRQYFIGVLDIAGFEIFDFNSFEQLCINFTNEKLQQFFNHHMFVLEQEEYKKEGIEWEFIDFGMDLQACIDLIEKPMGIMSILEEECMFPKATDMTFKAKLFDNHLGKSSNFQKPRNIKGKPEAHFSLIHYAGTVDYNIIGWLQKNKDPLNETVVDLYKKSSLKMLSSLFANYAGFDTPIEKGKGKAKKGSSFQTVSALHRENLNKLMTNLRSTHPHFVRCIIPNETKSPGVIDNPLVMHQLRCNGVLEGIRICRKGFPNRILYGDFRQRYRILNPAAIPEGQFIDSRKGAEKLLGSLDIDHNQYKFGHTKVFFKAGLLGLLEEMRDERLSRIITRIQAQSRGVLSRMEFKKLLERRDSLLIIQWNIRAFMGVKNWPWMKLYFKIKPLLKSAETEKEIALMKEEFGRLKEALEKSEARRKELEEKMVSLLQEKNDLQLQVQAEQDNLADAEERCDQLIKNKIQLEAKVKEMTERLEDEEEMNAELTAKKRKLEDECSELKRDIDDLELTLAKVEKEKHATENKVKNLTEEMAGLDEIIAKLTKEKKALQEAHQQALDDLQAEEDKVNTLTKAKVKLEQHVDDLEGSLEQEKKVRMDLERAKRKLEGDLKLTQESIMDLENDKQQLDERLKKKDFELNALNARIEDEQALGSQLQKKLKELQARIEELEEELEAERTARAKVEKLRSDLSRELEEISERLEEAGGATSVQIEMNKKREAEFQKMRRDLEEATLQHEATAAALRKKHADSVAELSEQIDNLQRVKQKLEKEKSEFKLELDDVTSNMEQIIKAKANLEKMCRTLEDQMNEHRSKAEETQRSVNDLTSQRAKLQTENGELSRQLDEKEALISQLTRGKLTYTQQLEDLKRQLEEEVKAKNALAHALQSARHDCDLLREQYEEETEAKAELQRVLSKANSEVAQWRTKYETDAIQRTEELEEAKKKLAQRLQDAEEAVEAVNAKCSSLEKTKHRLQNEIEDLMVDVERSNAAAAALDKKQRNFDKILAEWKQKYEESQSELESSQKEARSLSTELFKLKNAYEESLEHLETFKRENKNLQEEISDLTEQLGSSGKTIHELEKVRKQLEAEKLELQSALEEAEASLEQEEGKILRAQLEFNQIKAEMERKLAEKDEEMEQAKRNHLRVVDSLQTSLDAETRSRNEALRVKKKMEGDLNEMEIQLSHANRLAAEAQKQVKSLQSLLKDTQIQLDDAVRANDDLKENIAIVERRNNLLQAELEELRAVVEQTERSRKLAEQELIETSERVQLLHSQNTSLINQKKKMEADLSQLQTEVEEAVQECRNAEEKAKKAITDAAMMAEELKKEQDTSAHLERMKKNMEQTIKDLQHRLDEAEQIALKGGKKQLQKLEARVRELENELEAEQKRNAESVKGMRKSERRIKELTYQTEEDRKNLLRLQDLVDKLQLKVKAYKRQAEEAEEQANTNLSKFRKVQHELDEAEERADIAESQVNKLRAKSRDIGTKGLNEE
Sequence of bovine cardiac myosin (P85100 whole entry partner): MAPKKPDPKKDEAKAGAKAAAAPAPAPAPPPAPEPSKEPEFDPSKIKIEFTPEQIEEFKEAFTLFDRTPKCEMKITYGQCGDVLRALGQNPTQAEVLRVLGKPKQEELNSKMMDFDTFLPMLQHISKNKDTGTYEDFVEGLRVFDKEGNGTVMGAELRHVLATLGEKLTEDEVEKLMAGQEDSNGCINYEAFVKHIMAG
Sequence of bovine cardiac myosin (Q3SZE5 whole entry partner): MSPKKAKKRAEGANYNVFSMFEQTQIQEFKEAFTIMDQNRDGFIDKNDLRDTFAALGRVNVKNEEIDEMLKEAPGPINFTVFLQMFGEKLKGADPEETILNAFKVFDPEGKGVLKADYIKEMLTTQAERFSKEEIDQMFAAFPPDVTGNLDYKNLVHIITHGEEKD

For the test, the target named is bovine cardiac myosin (Bos taurus, UniProt Q9BE39). Description: Myosin activation assay (PK/LDH-coupled ATPase, bovine cardiac myofibrils). It is filed as biochemical. The following applies: AC20 = concentration at which total response is increased by twenty percent. The method, boiled down:
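Skinned bovine cardiac myofibrils (1 mg/mL) in PIPES/MgCl2 buffer pH 6.8 at free Ca2+ giving ~50% (pCa ~6) or <5% (pCa 10) activation, with 50 μM ATP and 3.3% DMSO. ATPase rate from NADH absorbance at 340 nm (PK/LDH coupling) over 15 min at ambient temperature. AC20/AC50 from a four-parameter fit of DMSO-normalised rates.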
On to `[2H]C([2H])([2H])n1cc(S(=O)(=O)[C@@](F)(C2CCN(C(=O)Nc3ccon3)CC2)C([2H])([2H])[2H])c(C(F)F)n1` [Compound 306, (R)-4-(1-((3-(difluoromethyl)-1-(methyl-d3)-1H-pyrazol-4-yl)sulfonyl)-1-fluoroethyl-2,2,2-d3)-N-(isoxazol-3-yl)piperidine-1-carboxamide], for which the “Myosin Activation (AC20)” value was “+++ (+++ represents myosin activation value AC20 < 2 μM)”. For `Cn1nc(C(F)(F)F)cc1S(=O)(=O)C(C)(F)C1CCN(C(=O)Nc2ccnnc2)CC1` (stereo not drawn) [Compound 277, 4-(1-fluoro-1-((1-methyl-3-(trifluoromethyl)-1H-pyrazol-5-yl)sulfonyl)ethyl)-N-(pyridazin-4-yl)piperidine-1-carboxamide], the “Myosin Activation (AC20)” value was “+++ (+++ represents myosin activation value AC20 < 2 μM)”.

For `CC(C1CCN(C(=O)Nc2ccncc2)CC1)S(=O)(=O)c1cccc(F)c1` (stereo not drawn) [Compound 31, 4-(1-((3-fluorophenyl)sulfonyl)ethyl)-N-(pyridin-4-yl)piperidine-1-carboxamide], the “Myosin Activation (AC20)” value is “++ (++ represents myosin activation value AC20 from 2 μM-5 μM)”. Regarding `COc1ncccc1S(=O)(=O)C(C)(C)C1CCN(C(=O)Nc2ccnnc2)CC1` [Compound 190, 4-(2-((2-methoxypyridin-3-yl)sulfonyl)propan-2-yl)-N-(pyridazin-4-yl)piperidine-1-carboxamide], the “Myosin Activation (AC20)” value is “++ (++ represents myosin activation value AC20 from 2 μM-5 μM)”.

As to `Cc1cc(S(=O)(=O)C(C)(C)C2CCN(C(=O)Nc3ccnnc3)CC2)n(C)n1` [Compound 187, 4-(2-((1,3-dimethyl-1H-pyrazol-5-yl)sulfonyl)propan-2-yl)-N-(pyridazin-4-yl)piperidine-1-carboxamide], the “Myosin Activation (AC20)” value was “+++ (+++ represents myosin activation value AC20 < 2 μM)”.

As for `COc1ccc(NC(=O)N2CCC(C(C)(C)S(=O)(=O)c3cccc(F)c3)CC2)cn1` [Compound 161, 4-(2-((3-fluorophenyl)sulfonyl)propan-2-yl)-N-(6-methoxypyridin-3-yl)piperidine-1-carboxamide], the “Myosin Activation (AC20)” value is on record as “+ (+ represents myosin activation value AC20 > 5 μM)”. With `CC(C)(C1CCN(C(=O)Nc2ccnnc2)CC1)S(=O)(=O)c1ccn2nccc2c1` [Compound 191, 4-(2-(pyrazolo[1,5-a]pyridin-5-ylsulfonyl)propan-2-yl)-N-(pyridazin-4-yl)piperidine-1-carboxamide], the “Myosin Activation (AC20)” value is “+++ (+++ represents myosin activation value AC20 < 2 μM)”. Then `Cc1ncc(NC(=O)N2CCC(C(C)(C)S(=O)(=O)c3cccc(F)c3)CC2)cn1` [Compound 141, 4-(2-((3-fluorophenyl)sulfonyl)propan-2-yl)-N-(2-methylpyrimidin-5-yl)piperidine-1-carboxamide], with “+ (+ represents myosin activation value AC20 > 5 μM)”; and `Cn1cc(S(=O)(=O)C(F)(F)C2CCN(C(=O)Nc3ccnc(CO)c3)CC2)c(C(F)F)n1` [Compound 101, 4-(((3-(difluoromethyl)-1-methyl-1H-pyrazol-4-yl)sulfonyl)difluoromethyl)-N-(2-(hydroxymethyl)pyridin-4-yl)piperidine-1-carboxamide], with “++ (++ represents myosin activation value AC20 from 2 μM-5 μM)”.

On to `CCn1nccc1S(=O)(=O)C(F)(F)C1CCN(C(=O)Nc2ccnnc2)CC1` [Compound 85, 4-(((1-ethyl-1H-pyrazol-5-yl)sulfonyl)difluoromethyl)-N-(pyridazin-4-yl)piperidine-1-carboxamide], for which the “Myosin Activation (AC20)” value was “+ (+ represents myosin activation value AC20 > 5 μM)”. Regarding `CC(F)(C1CCN(C(=O)Nc2ccno2)CC1)S(=O)(=O)c1cccc(F)c1` (stereo not drawn) [Compound 11, 4-(1-Fluoro-1-((3-fluorophenyl)sulfonyl)ethyl)-N-(isoxazol-5-yl)piperidine-1-carboxamide], the “Myosin Activation (AC20)” value is “++ (++ represents myosin activation value AC20 from 2 μM-5 μM)”. Then `Cn1nc(C(F)(F)F)cc1S(=O)(=O)C(C)(C)C1CCN(C(=O)Nc2ccon2)CC1` [Compound 126, N-(isoxazol-3-yl)-4-(2-((1-methyl-3-(trifluoromethyl)-1H-pyrazol-5-yl)sulfonyl)propan-2-yl)piperidine-1-carboxamide], with “++ (++ represents myosin activation value AC20 from 2 μM-5 μM)”; and `COc1ncccc1S(=O)(=O)C(C)(F)C1CCN(C(=O)Nc2ccnnc2)CC1` (stereo not drawn) [Compound 55, 4-(1-fluoro-1-((2-methoxypyridin-3-yl)sulfonyl)ethyl)-N-(pyridazin-4-yl)piperidine-1-carboxamide], with “++ (++ represents myosin activation value AC20 from 2 μM-5 μM)”. Regarding `CC(F)(C1CCN(C(=O)Nc2ccc(F)nc2)CC1)S(=O)(=O)c1cccc(C#N)c1` (stereo not drawn) [Compound 241, 4-(1-((3-cyanophenyl)sulfonyl)-1-fluoroethyl)-N-(6-fluoropyridin-3-yl)piperidine-1-carboxamide], the “Myosin Activation (AC20)” value is “+ (+ represents myosin activation value AC20 > 5 μM)”. On to `COc1ccc(F)cc1S(=O)(=O)C(F)(F)C1CCN(C(=O)Nc2ccnnc2)CC1` [Compound 68, 4-(difluoro((5-fluoro-2-methoxyphenyl)sulfonyl)methyl)-N-(pyridazin-4-yl)piperidine-1-carboxamide], for which the “Myosin Activation (AC20)” value is “+ (+ represents myosin activation value AC20 > 5 μM)”.

Regarding `Cn1cc(S(=O)(=O)C(C)(C)C2CCN(C(=O)Nc3ccnnc3)CC2)c(Cl)n1` [Compound 103, 4-(2-((3-chloro-1-methyl-1H-pyrazol-4-yl)sulfonyl)propan-2-yl)-N-(pyridazin-4-yl)piperidine-1-carboxamide], the “Myosin Activation (AC20)” value is reported as “++ (++ represents myosin activation value AC20 from 2 μM-5 μM)”. Turning to `O=C(Nc1ccncc1)N1CCC(CS(=O)(=O)c2cccc(F)c2)CC1` [Compound 33, 4-(((3-fluorophenyl)sulfonyl)methyl)-N-(pyridin-4-yl)piperidine-1-carboxamide], the “Myosin Activation (AC20)” value is on record as “+ (+ represents myosin activation value AC20 > 5 μM)”.

For `Cc1cc(NC(=O)N2CCC(C(C)(C)S(=O)(=O)c3cn(C)nc3C(F)F)CC2)cnn1` [Compound 154, 4-(2-((3-(difluoromethyl)-1-methyl-1H-pyrazol-4-yl)sulfonyl)propan-2-yl)-N-(6-methylpyridazin-4-yl)piperidine-1-carboxamide], the “Myosin Activation (AC20)” value is “+ (+ represents myosin activation value AC20 > 5 μM)”.

Consider `CCC(F)(C1CCN(C(=O)Nc2ccnnc2)CC1)S(=O)(=O)c1cccc(F)c1` (stereo not drawn) [Compound 77, 4-(1-fluoro-1-((3-fluorophenyl)sulfonyl)propyl)-N-(pyridazin-4-yl)piperidine-1-carboxamide], for which the “Myosin Activation (AC20)” value is reported as “++ (++ represents myosin activation value AC20 from 2 μM-5 μM)”. In the case of `N#Cc1ccc(S(=O)(=O)C2(C3CCN(C(=O)Nc4ccnnc4)CC3)CCC2)cc1` [Compound 164, 4-(1-((4-cyanophenyl)sulfonyl)cyclobutyl)-N-(pyridazin-4-yl)piperidine-1-carboxamide], the “Myosin Activation (AC20)” value is on record as “+++ (+++ represents myosin activation value AC20 < 2 μM)”. For the compound `CC(C)(C1CCN(C(=O)Nc2cnns2)CC1)S(=O)(=O)c1ccc(C(F)(F)F)cc1` [Compound 182, N-(1,2,3-thiadiazol-5-yl)-4-(2-((4-(trifluoromethyl)phenyl)sulfonyl)propan-2-yl)piperidine-1-carboxamide], the “Myosin Activation (AC20)” value is “+++ (+++ represents myosin activation value AC20 < 2 μM)”.
